{
  "source": "patent US20250009713A1",
  "about": "(priority 2021, published 2025)",
  "key": {"[1]": {"tested_on": "SARS-COV-2 US-WA1/2020 (NR-52281)", "test": "qRT-PCR of viral genome copies released into culture medium, Calu-3 cells", "format": "cell-based"}, "[2]": {"tested_on": "SARS-COV-2 Japan/TY7-503/2021-Brazil_P.1 (NR-54982)", "test": "qRT-PCR of viral genome copies released into culture medium, Calu-3 cells", "format": "cell-based"}, "[3]": {"tested_on": "SARS-COV-2 US-WA1/2020 (NR-52281)", "test": "qRT-PCR of viral genome copies released into culture medium, Vero cells", "format": "cell-based"}, "[4]": {"tested_on": "SARS-COV-2 Japan/TY7-503/2021-Brazil_P.1 (NR-54982)", "test": "qRT-PCR of viral genome copies released into culture medium, Vero cells", "format": "cell-based"}, "[5]": {"tested_on": "SARS-COV-2 US-WA1/2020 (NR-52281)", "test": "plaque assay of infectious virus released into culture medium, Calu-3 cells", "format": "cell-based"}, "[6]": {"tested_on": "SARS-COV-2 Japan/TY7-503/2021-Brazil_P.1 (NR-54982)", "test": "plaque assay of infectious virus released into culture medium, Calu-3 cells", "format": "cell-based"}, "[7]": {"tested_on": "SARS-COV-2 US-WA1/2020 (NR-52281)", "test": "plaque assay of infectious virus released into culture medium, Vero cells", "format": "cell-based"}, "[8]": {"tested_on": "SARS-COV-2 Japan/TY7-503/2021-Brazil_P.1 (NR-54982)", "test": "plaque assay of infectious virus released into culture medium, Vero cells", "format": "cell-based"}, "[9]": {"tested_on": "six strains of SARS-COV-2", "test": "qRT-PCR assay, summary over six strains and two cell types", "format": "cell-based"}, "[10]": {"tested_on": "six strains of SARS-COV-2", "test": "plaque assay, summary over six strains and two cell types", "format": "cell-based"}, "[11]": {"tested_on": "SARS-COV-2 (2019n-COV/USA-WA1/2020)", "format": "in vivo, K18-hACE2 mice"}, "[12]": {"tested_on": "SARS-COV-2 (2019n-COV/USA-WA1/2020)", "format": "in vivo, K18-hACE2 mice", "details": "for reduction of viral load in lung: 7 days, Day 7"}, "[13]": {"tested_on": "SARS-COV-2 (2019n-COV/USA-WA1/2020)", "format": "in vivo, K18-hACE2 mice", "details": "for reduction of infectious virus recovered from lung tissue: 7 days, Day 7, P<0.001"}, "[14]": {"tested_on": "IL-6; IL-1a; IL-1B; TNFα; TGFβ; MCP-1", "format": "in vivo, K18-hACE2 mice", "details": "7 days post infection"}, "[15]": {"details": "Severe acute respiratory syndrome coronavirus 2, virus WA1, m.o.i 0.1, BIT225 added 1 hour pre-infection, 4 days post infection"}, "[16]": {"details": "virus WA1, log-logistic curve fit"}, "[17]": {"details": "Severe acute respiratory syndrome coronavirus 2, virus BR, m.o.i 0.1, BIT225 added 1 hour pre-infection, 4 days post infection"}, "[18]": {"details": "virus BR, log-logistic curve fit"}, "[19]": {"details": "Severe acute respiratory syndrome coronavirus 2, m.o.i 0.1, BIT225 added 1 hour pre-infection, 4 days post infection"}, "[20]": {"details": "300 mg/kg twice daily, day 5 (Experiment 3) or Day 12 (Experiment 2), 11 mice"}, "[21]": {"details": "Experiment 1, 100 mg/kg or 300 mg/kg for 7 days, vs vehicle"}},
  "note": "“Also recorded” adds a separate entry of the source. Where two headings read alike, the source gives them in different places.",
  "data": [
    {"smiles": "Cn1cc(-c2cccc3cc(C(=O)NC(=N)N)ccc23)cn1", "note": "[BIT225, N-carbamimidoyl-5-(1-methyl-1H-pyrazol-4-yl)-2-naphthamide]", "values": [
      {"measurement": "EC50", "setting": "[1]; [15]", "result": 2.55, "unit": "µM"},
      {"measurement": "Max. Response (d)", "setting": "[1]; [16]", "result": 2.41, "unit": "log10"},
      {"measurement": "Slope (b)", "setting": "[1]; [16]", "result": 1.38},
      {"measurement": "EC50", "setting": "[2]; [17]", "result": 4.64, "unit": "µM"},
      {"measurement": "Max. Response (d)", "setting": "[2]; [18]", "result": 2.53, "unit": "log10"},
      {"measurement": "Slope (b)", "setting": "[2]; [18]", "result": 1.12},
      {"measurement": "EC50", "setting": "[3]; [15]", "result": 2.53, "unit": "µM"},
      {"measurement": "Max. Response (d)", "setting": "[3]; [16]", "result": 3.29, "unit": "log10"},
      {"measurement": "Slope (b)", "setting": "[3]; [16]", "result": 1.79},
      {"measurement": "EC50", "setting": "[4]; [17]", "result": 4.03, "unit": "µM"},
      {"measurement": "Max. Response (d)", "setting": "[4]; [18]", "result": 3.53, "unit": "log10"},
      {"measurement": "Slope (b)", "setting": "[4]; [18]", "result": 1.13},
      {"measurement": "EC50", "setting": "[5]; [19]", "result": 3.43, "unit": "µM"},
      {"measurement": "Max. Response (d)", "setting": "[5]; log-logistic curve fit", "result": 3.38, "unit": "log10"},
      {"measurement": "Slope (b)", "setting": "[5]; log-logistic curve fit", "result": 1.31},
      {"measurement": "EC50", "setting": "[6]; [17]", "result": 5.79, "unit": "µM"},
      {"measurement": "Max. Response (d)", "setting": "[6]; [18]", "result": 3.39, "unit": "log10"},
      {"measurement": "Slope (b)", "setting": "[6]; [18]", "result": 1.36},
      {"measurement": "EC50", "setting": "[7]; [19]", "result": 4.09, "unit": "µM"},
      {"measurement": "Max. Response (d)", "setting": "[7]; log-logistic curve fit", "result": 6.40, "unit": "log10"},
      {"measurement": "Slope (b)", "setting": "[7]; log-logistic curve fit", "result": 1.45},
      {"measurement": "EC50", "setting": "[8]; [17]", "result": 6.36, "unit": "µM"},
      {"measurement": "Max. Response (d)", "setting": "[8]; [18]", "result": 6.39, "unit": "log10"},
      {"measurement": "Slope (b)", "setting": "[8]; [18]", "result": 1.67},
      {"measurement": "EC50", "setting": "[9]; Severe acute respiratory syndrome coronavirus 2, read-out: EC50 estimates, range", "result": "2.5 to 4.8", "unit": "µM"},
      {"measurement": "EC50", "setting": "[9]; Severe acute respiratory syndrome coronavirus 2, qRT-PCR assay, mean over six strains and two cell types, read-out: EC50, mean", "result": 3.7, "unit": "µM"},
      {"measurement": "EC50", "setting": "[10]; Severe acute respiratory syndrome coronavirus 2, read-out: EC50, range", "result": "3.4 to 7.9", "unit": "µM"},
      {"measurement": "EC50", "setting": "[10]; Severe acute respiratory syndrome coronavirus 2, plaque assay, mean over six strains and two cell types, read-out: EC50, mean", "result": 6.2, "unit": "µM"},
      {"measurement": "survival to day 5 (Experiment 3) or Day 12 (Experiment 2)", "setting": "[11]; 11 mice, 300 mg/kg twice daily", "result": "all survived"},
      {"measurement": "difference in body weight changes between the two BIT225 dosing levels", "setting": "[11]; Experiment 1, 100 mg/kg vs 300 mg/kg twice daily, 7 days", "result": "no significant difference"},
      {"measurement": "difference between group-mean body weight changes, vehicle lower than combined BIT225 groups", "setting": "[11]; Experiment 1, day 5, P=0.01", "result": 3.8, "unit": "%"},
      {"measurement": "difference between group-mean body weight changes, vehicle lower than combined BIT225 groups", "setting": "[11]; Experiment 1, day 6, P=0.001", "result": 6.4, "unit": "%"},
      {"measurement": "mice with body weights greater than their pre-infection weights", "setting": "[11]; Experiment 1, day 7, 100 mg/kg or 300 mg/kg twice daily", "result": "all 10"},
      {"measurement": "difference between group-mean body weight changes, vehicle lower than combined BIT225 groups", "setting": "[11]; Experiment 1, day 7, 95% CI [5.6-10.7], P=0.001", "result": 8.1, "unit": "%"},
      {"measurement": "survival and weight gain to day 12", "setting": "[11]; Experiment 2, 300 mg/kg twice daily for 12 days, n=7, all vehicle mice died by day 9, P<0.001 log-rank, 300 mg/kg", "result": "all mice survived and continued to gain weight; also recorded: all seven mice in the BIT225 group survived"},
      {"measurement": "health and weight change to Day 5", "setting": "[11]; Experiment 3, 300 mg/kg twice daily, 5 days, n=4", "result": "remained healthy and gained weight to Day 5"},
      {"measurement": "survival, health and weight gain through day 12", "setting": "[11]; Experiment 4, 300 mg/kg twice daily starting 24 h post-infection, n=5, 300 mg/kg", "result": "remained healthy and continued gain weight as per age expectations through to day 12; also recorded: survived to Day 12"},
      {"measurement": "survival, health and weight gain through day 12", "setting": "[11]; Experiment 4, 300 mg/kg twice daily starting 24 h pre-infection, n=5, 300 mg/kg", "result": "remained healthy and continued gain weight as per age expectations through to day 12; also recorded: survived to Day 12"},
      {"measurement": "mice that died (day 11)", "setting": "[11]; Experiment 4, 300 mg/kg twice daily starting 48 h post-infection, n=5, 300 mg/kg", "result": "One of the five; also recorded: one mouse"},
      {"measurement": "mice that continued to gain body weight", "setting": "[11]; across three experiments, 12 hourly oral doses of BIT225 (100 or 300 mg/kg), intranasal", "result": "21 out of 21"},
      {"measurement": "lung viral loads (qRT-PCR)", "setting": "[12]; [20]", "result": "at or below the limits of detection"},
      {"measurement": "viral load in serum", "setting": "[12]; [21]", "result": "significant reductions"},
      {"measurement": "reduction of viral load in lung", "setting": "[12]; Experiment 1, 100 mg/kg twice daily, vs vehicle, P<0.001", "result": "approximately 2 log 10"},
      {"measurement": "reduction of viral load in lung", "setting": "[12]; Experiment 1, 300 mg/kg twice daily, vs vehicle", "result": "approximately 3.5 log 10"},
      {"measurement": "lung plaque counts", "setting": "[13]; [20]", "result": "< 200", "unit": "mL⁻¹"},
      {"measurement": "infectious virus in serum", "setting": "[13]; [21]", "result": "significant reductions"},
      {"measurement": "reduction of infectious virus recovered from lung tissue", "setting": "[13]; Experiment 1, 100 mg/kg twice daily", "result": "approximately 2000 PFU/mL"},
      {"measurement": "reduction of infectious virus recovered from lung tissue", "setting": "[13]; Experiment 1, 300 mg/kg twice daily", "result": "~4000", "unit": "PFU/mL"},
      {"measurement": "IL-6 level, statistically significant (P<0.05) lower than vehicle control", "setting": "[14]; 100 mg/kg dose group", "result": "exception"},
      {"measurement": "mean and median cytokine concentrations relative to vehicle control group", "setting": "[14]; high-dose BIT225 group (300 mg/kg)", "result": "less than half"},
      {"measurement": "end-of-treatment levels of IL-6, IL-1a, IL-1B, TNFα, TGFβ and MCP-1", "setting": "[14]; lung and serum, 100 or 300 mg/kg twice daily, vs vehicle control", "result": "reduced"}
    ]}
  ]
}
